Laboratory results from patent publication US20260034107A1, “SUBSTITUTED FUSED IMIDAZOLE DERIVATIVES AND METHODS OF TREATING SICKLE CELL DISEASE AND RELATED COMPLICATIONS” (vTv Therapeutics LLC, priority 2019, published 2026).

Tests used:
HbF [1] = experiment: Western blot analysis of HbF induction in KU812 cells; assay type: cell-based, human; details: for HbF induction by Western blot: tested concentrations 0.5-20 μM; for increased HbF (Western blot): at concentrations between 0.5 to 5 PM
Procedure: (§1) About 20-50 ug of protein is separated by SDS-polyacrylamide gel electrophoresis, and transferred to nitrocellulose membranes. Membranes are blocked in 5% dry milk containing TBS-T for 30 minutes followed by one hour and incubated with HbF or actin antibodies. After several washes, membranes are incubated with 1:10000 diluted HRP-conjugated secondary antibody (Thermo Scientific), developed with ECL Prime reagent (GE Healthcare Biosciences). Images may be captured on a Bio-Rad Chemi-Doc MP Imaging System and protein bands quantified by densitometry.
(§2) KU812, a human leukemic cell line that expresses the fetal gamma-globin and adult beta-globin genes, was used as a system for screening. […] (See Zein S, Lou R F, Sivanand S, Ramakrishnan V, Mackie A, Li W, Pace BS. KU812 Cell Line: model for identifying fetal hemoglobin inducing drugs. Exp Biol Med (Maywood) 235:1385-94, 2010.) KU812 cells were grown in Iscove's Modified Dulbecco Media (IMDM) and 10% fetal bovine serum until in log phase growth.
Western blot analysis was also conducted to determine level of induction of HbF in KU812 cells by Compounds 73, 134, 473, and 236. Hydroxyurea and hemin were used as positive controls, and ß-actin was used as a protein loading control.

KU812 cells = experiment: KU812 cell counts and viability by 0.4% Trypan blue exclusion; assay type: cell-based, human; details: 48 hours, 0.5, 2.5, 5.0 and 20 μM, widest range of drug concentrations
Procedure: as §2
KU812 cells in log growth phase were treated with compounds 73, 134, 473 and 236 (See Table A) at a doses of 0.5, 2.5, 5.0 and 20 μM for 48 hours. At harvest, cell counts and viability were measured by 0.4% Trypan blue exclusion.

HbF [2] = experiment: Flow cytometry of KU812 cells for HbF positive cells (F-cells) and MFI; assay type: cell-based, human; details: flow cytometry, 0.5, 2.5, 5, 10, and 20 μM
Procedure: (§3) About 5×10^5 cells are harvested after treatment with compound, washed twice with ice cold phosphate buffered saline and resuspended in 4% paraformaldehyde for 40 minutes at 37° C. Fixed cells are permeabilized with ice-cold acetone/methanol (4:1) and washed with phosphate buffered saline followed by incubation with FITC-conjugated anti-HbF antibody (1:1000, Abcam) for 20 minutes. The labeled cells may be analyzed using a Becton Dickerson LSR-II flow cytometer (BD Bioscience, San Jose, CA, USA) and FlowJo v0.9 software.
as §2
Flow cytometry was conducted for KU812 cells following treatment with Compounds 473 and 236 at various concentrations (0.5, 2.5, 5, 10, and 20 μM). […] Compounds 73 and 134 were not analyzed by flow cytometry.

γ-globin = γ-globin / HbF expression in sickle erythroid progenitor cells; assay type: cell-based; details: 48 hours
Procedure: as §1
About 5×10^5 cells are harvested after treatment with compound, washed twice with ice cold phosphate buffered saline and resuspended in 4% paraformaldehyde for 40 minutes at 37° C. […] The labeled cells may be analyzed using a Becton Dickerson LSR-II flow cytometer (BD Bioscience, San Jose, CA, USA) and FlowJo v0.9 software.
To test compounds under conditions more closely modeling physiological conditions for one with a SCD, sickle erythroid progenitor cells were cultured for 10 days and then treated with Compound 473 for 48 hours at concentrations of 0.5 μM and 2.5 μM. Treated cells were analyzed by western blot for levels of expression of HbF, HbS, and ß-actin relative to cells treated with DMSO, hemin, or HU. […]

[3] = system: sickle erythroid progenitor cells; experiment: Anti-sickling activity in sickle erythroid progenitor cells under hypoxia; assay type: cell-based; details: 0.5 μM and 2.5 μM, 48 hours, hypoxia (1% O2 and 5% CO2)
Procedure: As described above, sickle erythroid progenitor cells were cultured for 10 days and then treated with Compound 473 for 48 hours at concentrations of 0.5 μM and 2.5 μM or with hemin (about 50 μM) or with HU (about 100 μM). Treated cells were then subjected to hypoxia conditions (1% O2 and 5% CO2).

HbF [4] = experiment: Flow cytometry of F-cells in sickle erythroid progenitor cells; assay type: cell-based; details: 0.5 μM and 2.5 μM, 48 hours
Procedure: as §3
(§4) To test compounds under conditions more closely modeling physiological conditions for one with a SCD, sickle erythroid progenitor cells were cultured for 10 days and then treated with Compound 473 for 48 hours at concentrations of 0.5 μM and 2.5 μM. Treated cells were analyzed by western blot for levels of expression of HbF, HbS, and ß-actin relative to cells treated with DMSO, hemin, or HU. The same treated cells were also analyzed by flow cytometry for y-globin gene expression relative to cells treated with DMSO, hemin, or HU.

HbS = experiment: Western blot of HbS protein in sickle erythroid progenitor cells; assay type: cell-based; details: 0.5 μM and 2.5 μM, 48 hours
Procedure: as §1, §4

| Structure (SMILES) | HbF induction by Western blot (HbF [1]) | effects on cell growth rates (KU812 cells) | increased HbF (Western blot) (HbF [1]) | mean fluorescence intensity (MFI) (HbF [2]) | number of HbF positive cells (F-cells) (HbF [2]) | γ-globin gene expression induction (γ-globin; 0.5 μM) | γ-globin gene expression induction (γ-globin; 2.5 μM) | percent of sickled cells compared to DMSO control [3] | F-cell levels by flow cytometry (HbF [4]) | HbS protein levels (HbS) |
| --- | --- | --- | --- | --- | --- | --- | --- | --- | --- | --- |
| COCCNC(=O)c1cnc2c(c1)nc(Nc1nc3ccc(OC(F)(F)F)cc3s1)n2C [Compound 73, 3-Methyl-2-(6-trifluoromethoxy-benzothiazol-2-ylamino)-3H-imidazo[4,5-b]pyridine-6-carboxylic acid (2-methoxy-ethyl)-amide] | showed HbF induction |  |  |  |  |  |  |  |  |  |
| CN(C)C(=O)CNC(=O)c1ccc2c(c1)nc(Nc1nc3ccc(C(F)(F)F)cc3s1)n2C [Compound 134, 1-Methyl-2-(6-trifluoromethyl-benzothiazol-2-ylamino)-1H-benzimidazole-5-carboxylic acid dimethylcarbamoylmethyl-amide] | showed HbF induction | minimal effects | increased HbF |  |  |  |  |  |  |  |
| Cn1c(Nc2nc3ccc(C(F)(F)F)cc3s2)nc2cc(C(=O)NCCOCCO)ccc21 [Compound 236, 1-Methyl-2-(6-trifluoromethyl-benzothiazol-2-ylamino)-1H-benzoimidazole-5-carboxylic acid [2-(2-hydroxy-ethoxy)-ethyl]-amide] | did not show significant induction of HbF |  |  | some increase in MFI | did not significantly increase F-cells |  |  |  |  |  |
| Cn1c(Nc2nc3ccc(C(F)(F)F)cc3s2)nc2cc(C(=O)NCCOCCO)cnc21 [Compound 473, N-[2-(2-Hydroxyethoxy)ethyl]-3-methyl-2-[[6-(trifluoromethyl)-1,3-benzothiazol-2-yl]amino]imidazo[4,5-b]pyridine-6-carboxamide] | showed HbF induction | minimal effects | increased HbF | increased mean fluorescence intensity | increase in the number of HbF positive cells | 1.6 fold | 1.9 fold | significantly decreased the percent of sickled cells | Increased F-cell levels | without affecting HbS protein levels |
